Target: T1, Recombinant human PAD4 (2-663) (Homo sapiens, UniProt Q9UM07)
T1 construct: Recombinant human PAD4 (2-663) was expressed in E. coli; made in house; host or cells: E. coli
Test: PAD4 Inhibition Assay
Format: biochemical
Settings: 60 mins pre-incubation at RT; substrate BAEE with CaCl2; fluorescent signal (λex 405/λem 460)
Procedure: Protein: Recombinant human PAD4 (2-663) was expressed in E. coli as an N-terminal Strep-tag and C-terminal 6-his tag fusion protein. Protein was purified using Strep-tactin resin followed by size exclusion chromatography. Tags were not removed during purification. Activity of the protein was determined using ammonia quantification assay.
PAD4 enzyme (10 μL) was diluted to concentration of 75 nM in assay buffer A (100 mM HEPES, pH 8, 50 mM NaCl, 2 mM DTT, 0.6 mg/mL BSA and 0.5% DMSO) and added to wells containing 10 μL of various concentrations of test compound, or DMSO vehicle in buffer A with 1.5% final DMSO concentration in a Corning high volume 384 well black plate. Following 60 mins pre-incubation at RT with gentle shaking, the reaction was initiated by the addition of 10 μL of substrate buffer containing 3 mM N-α-benzoyl-L-arginine ethyl ester (BAEE) and 600 μM CaCl2) in assay buffer A. The reaction was stopped after 60 mins with the addition of 15 μL stop/detection buffer containing 7.5 mM phthalaldehyde, 50 mM EDTA and 7.5 mM DTT in assay buffer A. Quenched reactions were incubated at RT for 45 mins before measuring fluorescent signal (λex 405/λem 460) on an Envision plate reader (Perkin Elmer Life Sciences, Waltham, Mass., USA).

T1 sequence (Q9UM07 2-663): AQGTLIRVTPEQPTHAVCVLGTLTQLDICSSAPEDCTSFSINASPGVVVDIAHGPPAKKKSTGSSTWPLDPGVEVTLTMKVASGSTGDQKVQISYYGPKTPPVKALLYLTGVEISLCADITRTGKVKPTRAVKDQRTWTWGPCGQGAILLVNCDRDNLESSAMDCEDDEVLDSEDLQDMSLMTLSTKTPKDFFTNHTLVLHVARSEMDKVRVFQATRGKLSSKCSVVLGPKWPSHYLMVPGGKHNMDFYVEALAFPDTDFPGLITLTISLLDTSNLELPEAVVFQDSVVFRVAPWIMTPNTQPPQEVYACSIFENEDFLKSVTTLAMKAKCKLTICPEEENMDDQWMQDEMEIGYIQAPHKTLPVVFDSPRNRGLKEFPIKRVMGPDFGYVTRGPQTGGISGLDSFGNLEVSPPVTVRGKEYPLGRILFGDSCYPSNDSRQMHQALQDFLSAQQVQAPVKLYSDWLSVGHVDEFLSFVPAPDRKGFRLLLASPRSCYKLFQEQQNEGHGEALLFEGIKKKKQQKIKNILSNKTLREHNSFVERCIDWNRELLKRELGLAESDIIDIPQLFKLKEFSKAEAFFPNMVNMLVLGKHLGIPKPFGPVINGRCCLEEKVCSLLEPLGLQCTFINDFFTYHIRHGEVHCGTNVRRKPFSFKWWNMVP

SMILES	IC50
N[C@H]1CN(C(=O)c2cc3cc(Cl)c(F)c(F)c3[nH]2)C[C@H]1O [Example 32, ((3S,4R)-3-Amino-4-hydroxypyrrolidin-1-yl)(5-chloro-6,7-difluoro-1H-indol-2-yl)methanone]	1 to 10 µM
N[C@@H]1CCN(C(=O)c2cc3cc(Cl)cc(Br)c3[nH]2)C1 [Example 47, (R)-(3-Aminopyrrolidin-1-yl)(7-bromo-5-chloro-1H-indol-2-yl)methanone]	10 to 100 µM
N[C@H]1CN(C(=O)c2cc3cc(Cl)c(F)c(F)c3[nH]2)C[C@@H]1N [Example 29, (5-Chloro-6,7-difluoro-1H-indol-2-yl)((3S,4S)-3,4-diaminopyrrolidin-1-yl)methanone]	1 to 10 µM
N[C@H]1CN(C(=O)c2cc3cc(Br)c(F)c(F)c3[nH]2)C[C@H]1O [Example 67, ((3S,4R)-3-amino-4-hydroxypyrrolidin-1-yl)(5-bromo-6,7-difluoro-1H-indol-2-yl)methanone]	1 to 10 µM
CC(C)(C)[C@@H](CN)NC(=O)c1cc2cc(Cl)c(F)c(F)c2[nH]1 [Example 28, (S)-N-(1-Amino-3,3-dimethylbutan-2-yl)-5-chloro-6,7-difluoro-1H-indole-2-carboxamide]	10 to 100 µM
N[C@@H]1CCN(C(=O)c2cc3cc(Cl)cc(F)c3[nH]2)C1 [Example 2, (R)-(3-Aminopyrrolidin-1-yl)(5-chloro-7-fluoro-1H-indol-2-yl)methanone]	≤ 1 µM
N[C@@H]1CCN(C(=O)c2cc3cc(Cl)ccc3[nH]2)C1 [Example 8, (R)-(3-Aminopyrrolidin-1-yl)(5-chloro-1H-indol-2-yl)methanone]	1 to 10 µM
N[C@@H]1CCN(C(=O)c2cc3cc(Cl)cc(Cl)c3[nH]2)C1 [Example 45, (R)-(3-Aminopyrrolidin-1-yl)(5,7-dichloro-1H-indol-2-yl)methanone]	10 to 100 µM

Results, then the molecule that gave them:

IC50	SMILES
10 to 100 µM	O=C(N[C@H]1CNC[C@@H]1O)c1cc2cc(Cl)c(F)c(F)c2[nH]1 [Example 18, 5-Chloro-6,7-difluoro-N-((3S,4S)-4-hydroxypyrrolidin-3-yl)-1H-indole-2-carboxamide]
10 to 100 µM	C[C@H](CN)NC(=O)c1cc2cc(Cl)c(F)c(F)c2[nH]1 [Example 21, (R)-N-(1-Aminopropan-2-yl)-5-chloro-6,7-difluoro-1H-indole-2-carboxamide]
10 to 100 µM	CO[C@@H]1CNC[C@H]1NC(=O)c1cc2cc(Cl)c(F)c(F)c2[nH]1 [Example 34, 5-Chloro-6,7-difluoro-N-((3R,4R)-4-methoxypyrrolidin-3-yl)-1H-indole-2-carboxamide]
1 to 10 µM	C[C@@H]1CNC[C@H]1NC(=O)c1cc2cc(Cl)c(F)c(F)c2[nH]1 [Example 13, 5-Chloro-6,7-difluoro-N-((3S,4R)-4-methylpyrrolidin-3-yl)-1H-indole-2-carboxamide]
1 to 10 µM	O=C(N[C@@H]1CNC[C@H]1O)c1cc2cc(Cl)c(F)c(F)c2[nH]1 [Example 15, 5-Chloro-6,7-difluoro-N-((3R,4R)-4-hydroxypyrrolidin-3-yl)-1H-indole-2-carboxamide]
1 to 10 µM	NC1CN(C(=O)c2cc3cc(Cl)c(F)c(F)c3[nH]2)C1 [Example 24, (3-Aminoazetidin-1-yl)(5-chloro-6,7-difluoro-1H-indol-2-yl)methanone]
10 to 100 µM	O=C(N[C@H]1CNC[C@H]1O)c1cc2cc(Cl)c(F)c(F)c2[nH]1 [Example 17, 5-Chloro-6,7-difluoro-N-((3S,4R)-4-hydroxypyrrolidin-3-yl)-1H-indole-2-carboxamide]
≤ 1 µM	O=C(NC1CNC1)c1cc2cc(Cl)c(F)c(F)c2[nH]1 [Example 23, N-(Azetidin-3-yl)-5-chloro-6,7-difluoro-1H-indole-2-carboxamide]
10 to 100 µM	O=C(NC[C@H]1CCNC1)c1cc2cc(Cl)c(F)c(F)c2[nH]1 [Example 62, (S)-5-chloro-6,7-difluoro-N-(pyrrolidin-3-ylmethyl)-1H-indole-2-carboxamide]

From US12018033B2, “Inhibitors of protein arginine deiminases” (Forward Therapeutics, Inc., priority 2018, dated 2024)
